pIC50: −log10 of the molar value. Structures can show the parent of a compound that is named as a salt.
What was measured:
in vitro = conditions: human
HTT CJ mRNA = assay: Gene panel canonical junction qPCR assay, HTT; assay type: cell-based; conditions: Homo sapiens, larger gene panel, read-out: HTT IC50 (decrease in CJ mRNA levels)
Summary of the method: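 A673 or K562 cells treated 24 h with 11-point 3-fold dilutions (top 10 µM, ≤0.25% DMSO) at 37 °C. Canonical exon-junction mRNA measured by probe-based RT-qPCR, normalized to GAPDH, GUSB or PPIA and DMSO (2^−ΔΔCt), converted to percent response over a fixed ΔCt window; IC50 from 4-parameter fit.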

[1] = tested on: HiBiT-tagged HTT protein in K562 cells; assay: HiBiT protein abundance assay, HTT; assay type: cell-based, human; conditions: HiBiT-modified K562 cells, 24 hours, luminescence
Summary of the method: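 K562 lines with the endogenous target HiBiT-tagged, seeded in IMDM+1% FBS, got a 10-point 3-fold dilution series (top final 10 μM, DMSO ≤0.25%) for 24 hours at 37° C. Lytic LgBiT luminescence was normalized against unmodified-K562 and DMSO-only controls, and IC50 was interpolated at 50% from a four-parameter logistic fit.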

Structure (SMILES)	GI50 at 72 h (in vitro) [µM]	pIC50 (HTT CJ mRNA)	pIC50 [1]
Cc1cn2nc(-c3cc(=O)n4cc(N(C)C5CC(C)(C)NC(C)(C)C5)sc4n3)cc(C)c2n1 [Compound 205, 7-(2,8-dimethylimidazo[1,2-b]pyridazin-6-yl)-2-(methyl(2,2,6,6-tetramethylpiperidin-4-yl)amino)-5H-thiazolo[3,2-a]pyrimidin-5-one]	1 to 10	5.00 to 6.00	5.00 to 6.00
Cc1cn2cc(-c3nn4c(=O)cc(N(C)C5CC(C)(C)NC(C)(C)C5)nc4s3)cc(F)c2n1 [Compound 215, 2-(8-fluoro-2-methylimidazo[1,2-a]pyridin-6-yl)-7-(methyl(2,2,6,6-tetramethylpiperidin-4-yl)amino)-5H-[1,3,4]thiadiazolo[3,2-a]pyrimidin-5-one]	1 to 10	5.00 to 6.00	< 5.00
Cc1cn2cc(-n3cnc4nc(N(C)C5CC(C)(C)NC(C)(C)C5)sc4c3=O)cc(F)c2n1 [Compound 227, 6-(8-fluoro-2-methylimidazo[1,2-a]pyridin-6-yl)-2-(methyl(2,2,6,6-tetramethylpiperidin-4-yl)amino)thiazolo[4,5-d]pyrimidin-7(6H)-one, formate]	> 10	< 5.00	< 5.00
Cn1cc2cc(-c3cc4ncn(C5CCNCC5)c(=O)c4s3)c(F)cc2n1 [Compound 258]		6.00 to 7.00	6.00 to 7.00
Cn1cc2cc(-c3cc4ncn(C5CCNCC5)c(=O)c4s3)cc(C#N)c2n1 [Compound 259]		5.00 to 6.00	6.00 to 7.00
COc1cc(-c2cc3ncn(C4CCNCC4)c(=O)c3s2)cnn1 [Compound 260]		5.00 to 6.00	5.00 to 6.00
Cc1cn2cc(-c3cc4ncn(C5CCNCC5)c(=O)c4s3)cc(C)c2n1 [Compound 261]		6.00 to 7.00	6.00 to 7.00
Cc1cn2nc(-c3cc4ncn(C5CCNCC5)c(=O)c4s3)cc2c(C)n1 [Compound 262]		6.00 to 7.00	6.00 to 7.00
COc1cc(-c2cc3ncn(C4CCNCC4)c(=O)c3s2)ccn1 [Compound 263]		5.00 to 6.00	5.00 to 6.00
Cc1cn2cc(-c3cc4ncn(C5CCNCC5)c(=O)c4s3)ncc2n1 [Compound 264]		5.00 to 6.00	5.00 to 6.00
Cc1cn2cc(-c3cc4ncn(C5CCN(C)CC5)c(=O)c4s3)cc(F)c2n1 [Compound 265, 6-{8-fluoro-2-methylimidazo[1,2-a]pyridin-6-yl}-3-(1-methylpiperidin-4-yl)thieno[3,2-d]pyrimidin-4-one]		6.00 to 7.00	6.00 to 7.00
Cc1cn2nc(-c3nc4sc(N5CCNCC5)nc4c(=O)[nH]3)cc2c(C)n1 [Compound 267]		6.00 to 7.00	6.00 to 7.00
Cc1cn2nc(-c3nc4sc(N5CCN(C)CC5)nc4c(=O)[nH]3)cc2c(C)n1 [Compound 268]		< 5.00	< 5.00
Cc1cn2cc(-c3cc4ncn(N5CCNCC5)c(=O)c4s3)cc(F)c2n1 [Compound 269, 6-{8-fluoro-2-methylimidazo[1,2-a]pyridin-6-yl}-3-(piperazin-1-yl)thieno[3,2-d]pyrimidin-4-one]		6.00 to 7.00	6.00 to 7.00
Cc1cn2cc(-c3cc4ncn(C5CCNC5)c(=O)c4s3)cc(F)c2n1 (centres unmarked) [Compound 270, 6-{8-fluoro-2-methylimidazo[1,2-a]pyridin-6-yl}-3-(pyrrolidin-3-yl)thieno[3,2-d]pyrimidin-4-one]		6.00 to 7.00	6.00 to 7.00
Cc1nc(-c2cc3ncn(C4CCNCC4)c(=O)c3s2)cc2cn(C)nc12 [Compound 271]		5.00 to 6.00	5.00 to 6.00

Structure (SMILES)	GI50 at 72 h (in vitro) [µM]	pIC50 (HTT CJ mRNA)	pIC50 [1]
Cc1cn2cc(-c3cc4ncn(C5CCNCC5(F)F)c(=O)c4s3)cc(F)c2n1 (centres unmarked) [Compound 274, 3-(3,3-difluoropiperidin-4-yl)-6-{8-fluoro-2-methylimidazo[1,2-a]pyridin-6-yl}thieno[3,2-d]pyrimidin-4-one]		< 5.00	< 5.00
Cc1cn2cc(-c3cc4ncn(C5CCCNCC5)c(=O)c4s3)cc(F)c2n1 (centres unmarked) [Compound 275, 3-(azepan-4-yl)-6-{8-fluoro-2-methylimidazo[1,2-a]pyridin-6-yl}thieno[3,2-d]pyrimidin-4-one]		6.00 to 7.00	6.00 to 7.00
Cc1cn2cc(-c3cc4ncn(C5=CCNCC5)c(=O)c4s3)cc(F)c2n1 [Compound 276, 6-{8-fluoro-2-methylimidazo[1,2-a]pyridin-6-yl}-3-(1,2,3,6-tetrahydropyridin-4-yl)thieno[3,2-d]pyrimidin-4-one]		6.00 to 7.00	6.00 to 7.00
Cc1cn2cc(-c3cc4ncn(C5CNCCC5=O)c(=O)c4s3)cc(F)c2n1 (centres unmarked) [Compound 279, 3-(6-{8-fluoro-2-methylimidazo[1,2-a]pyridin-6-yl}-4-oxothieno [3,2-d]pyrimidin-3-yl)piperidin-4-one]		< 5.00	< 5.00
Cc1cn2cc(N3CCc4cc(C5CCNCC5)sc4C3=O)cc(F)c2n1 [Compound 800, 6-[8-fluoro-2-methylimidazo[1,2-a]pyridin-6-yl]-2-(piperidin-4-yl)-4H,5H-thieno[2,3-c]pyridin-7-one]		< 5.00	< 5.00
Cc1cn2cc(-n3ccc4cc(C5CCNCC5)sc4c3=O)cc(F)c2n1 [Compound 801, 6-[8-fluoro-2-methylimidazo[1,2-a]pyridin-6-yl]-2-(piperidin-4-yl)thieno[2,3-c]pyridin-7-one]		< 5.00	< 5.00
Cc1cc(-c2cc3cnn(C4CCNCC4)c(=O)c3s2)cc2cn(C)nc12 [Compound 802, 2-(2,7-dimethyl-2H-indazol-5-yl)-6-(piperidin-4-yl)thieno[2,3-d]pyridazin-7(6H)-one]		6.00 to 7.00	> 7.00
Cc1cn2cc(-c3cc4ccn(C5CCNCC5)c(=O)c4s3)cc(F)c2n1 [Compound 804, 2-(8-fluoro-2-methylimidazo[1,2-a]pyridin-6-yl)-6-(piperidin-4-yl)thieno[2,3-c]pyridin-7(6H)-one]		6.00 to 7.00	6.00 to 7.00
Cc1cc(-c2cc3ccn(C4CCNCC4)c(=O)c3s2)cc2cn(C)nc12 [Compound 805, 2-(2,7-dimethyl-2H-indazol-5-yl)-6-(piperidin-4-yl)thieno[2,3-c]pyridin-7(6H)-one]		6.00 to 7.00	6.00 to 7.00
Cc1cn2nc(-c3cc4ccn(C5CCNCC5)c(=O)c4s3)cc(C)c2n1 [Compound 806, 2-(2,8-dimethylimidazo[1,2-b]pyridazin-6-yl)-6-(piperidin-4-yl)thieno[2,3-c]pyridin-7(6H)-one]		6.00 to 7.00	6.00 to 7.00
Cc1cn2cc(-c3cc4ccn(C5CCN(C)CC5)c(=O)c4s3)cc(F)c2n1 [Compound 808, 2-(8-fluoro-2-methylimidazo[1,2-a]pyridin-6-yl)-6-(1-methylpiperidin-4-yl)thieno[2,3-c]pyridin-7(6H)-one]		6.00 to 7.00	6.00 to 7.00
Cc1cn2nc(-c3cc4ccn(C5CCN(C)CC5)c(=O)c4s3)cc(C)c2n1 [Compound 809]		5.00 to 6.00	5.00 to 6.00
Cc1cn2nc(-c3nc4cnn(C5CCNCC5)c(=O)c4s3)cc(C)c2n1 [Compound 810]		6.00 to 7.00	6.00 to 7.00
Cc1nc(-c2nc3cnn(C4CCNCC4)c(=O)c3s2)cc2cn(C)nc12 [Compound 811]		5.00 to 6.00	5.00 to 6.00
Cc1cn2cc(-c3nc4cnn(C5CCNCC5)c(=O)c4s3)nc(C)c2n1 [Compound 812, 2-(2,8-dimethylimidazo[1,2-a]pyrazin-6-yl)-6-(piperidin-4-yl)thiazolo[4,5-d]pyridazin-7(6H)-one]		< 5.00	6.00 to 7.00

Source: patent publication US20240366612A1, “COMPOUNDS AND METHODS FOR MODULATING NUCLEIC ACID SPLICING” (REMIX THERAPEUTICS INC., priority 2021, published 2024)
